Laboratory results: ChEMBL document CHEMBL2412999, “Anticonvulsant properties of histamine H3 receptor ligands belonging to N-substituted carbamates of imidazopropanol” (Bioorg Med Chem Lett, 2013)
Active and inactive are the calls of the source. The calls are words filed in the database; no cut-off is given here.

Key:
[1] = tested on: Rattus norvegicus; test: Anticonvulsant activity in Wistar rat assessed as protection against maximum electric shock-induced tonic hind limb extension at 10 mg/kg, ip; type: functional, organism-based; parameters: dose 10 mg/kg; conditions: Hindlimb
[2] = molecular target: Histamine H3 receptor (Homo sapiens, UniProt Q9Y5N1); test: Displacement of [125I]iodoproxyfan from human histamine H3 receptor expressed in CHO-K1 cells; type: cell-based
Sequence of Histamine H3 receptor (Q9Y5N1 whole entry): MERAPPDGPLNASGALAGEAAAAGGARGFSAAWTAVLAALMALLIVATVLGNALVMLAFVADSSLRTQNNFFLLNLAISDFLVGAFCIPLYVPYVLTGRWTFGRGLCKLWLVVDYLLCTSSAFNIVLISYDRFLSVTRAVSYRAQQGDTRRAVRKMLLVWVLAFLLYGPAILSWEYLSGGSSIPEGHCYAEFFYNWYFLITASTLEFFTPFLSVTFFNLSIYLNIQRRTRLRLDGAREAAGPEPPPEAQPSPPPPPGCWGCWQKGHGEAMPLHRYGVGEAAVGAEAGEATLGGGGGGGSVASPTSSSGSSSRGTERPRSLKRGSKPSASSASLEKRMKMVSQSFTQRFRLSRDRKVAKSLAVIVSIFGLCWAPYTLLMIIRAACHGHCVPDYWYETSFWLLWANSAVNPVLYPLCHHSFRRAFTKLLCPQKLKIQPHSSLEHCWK

[3] = molecular target: Histamine H4 receptor (Homo sapiens, UniProt Q9H3N8); test: Displacement of [3H]histamine from human histamine H4 receptor expressed in Sf9 cells co-expressing Gai2 and Gb1c2 subunit
Sequence of Histamine H4 receptor (Q9H3N8 whole entry): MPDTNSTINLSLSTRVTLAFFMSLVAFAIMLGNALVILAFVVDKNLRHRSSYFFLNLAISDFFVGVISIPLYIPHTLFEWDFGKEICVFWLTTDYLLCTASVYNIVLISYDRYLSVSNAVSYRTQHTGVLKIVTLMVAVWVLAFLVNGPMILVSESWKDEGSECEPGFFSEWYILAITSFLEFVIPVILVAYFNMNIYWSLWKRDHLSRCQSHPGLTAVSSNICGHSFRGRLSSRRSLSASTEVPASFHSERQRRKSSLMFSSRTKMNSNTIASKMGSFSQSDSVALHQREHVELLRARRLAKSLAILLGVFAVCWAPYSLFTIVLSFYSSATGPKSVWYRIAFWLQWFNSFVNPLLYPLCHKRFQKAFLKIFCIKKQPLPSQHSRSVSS

[4] = molecular target: Histamine H2 receptor (Cavia porcellus) (UniProt P47747); test: Antagonist activity at histamine H2 receptor in guinea pig atrium; conditions: Cardiac atrium
Sequence of Histamine H2 receptor (Cavia porcellus) (P47747 whole entry): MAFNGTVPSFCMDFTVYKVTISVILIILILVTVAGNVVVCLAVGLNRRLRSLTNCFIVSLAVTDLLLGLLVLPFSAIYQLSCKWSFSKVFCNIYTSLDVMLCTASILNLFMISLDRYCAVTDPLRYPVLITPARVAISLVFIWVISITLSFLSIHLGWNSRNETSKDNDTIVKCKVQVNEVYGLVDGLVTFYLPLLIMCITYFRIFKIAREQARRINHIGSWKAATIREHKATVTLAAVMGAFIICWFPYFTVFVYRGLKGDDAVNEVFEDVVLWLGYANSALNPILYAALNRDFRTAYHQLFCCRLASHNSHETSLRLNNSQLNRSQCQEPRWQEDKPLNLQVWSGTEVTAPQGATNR

[5] = tested on: Rattus norvegicus; test: Anticonvulsant activity in Wistar rat assessed as protection against maximum electric shock-induced tonic hind limb extension at 10 to 15 mg/kg, ip; type: functional, organism-based; conditions: Hindlimb
[6] = molecular target: Histamine H1 receptor (Cavia porcellus) (UniProt P31389); test: Antagonist activity at histamine H1 receptor in guinea pig ileum; type: tissue-based
Sequence of Histamine H1 receptor (Cavia porcellus) (P31389 whole entry): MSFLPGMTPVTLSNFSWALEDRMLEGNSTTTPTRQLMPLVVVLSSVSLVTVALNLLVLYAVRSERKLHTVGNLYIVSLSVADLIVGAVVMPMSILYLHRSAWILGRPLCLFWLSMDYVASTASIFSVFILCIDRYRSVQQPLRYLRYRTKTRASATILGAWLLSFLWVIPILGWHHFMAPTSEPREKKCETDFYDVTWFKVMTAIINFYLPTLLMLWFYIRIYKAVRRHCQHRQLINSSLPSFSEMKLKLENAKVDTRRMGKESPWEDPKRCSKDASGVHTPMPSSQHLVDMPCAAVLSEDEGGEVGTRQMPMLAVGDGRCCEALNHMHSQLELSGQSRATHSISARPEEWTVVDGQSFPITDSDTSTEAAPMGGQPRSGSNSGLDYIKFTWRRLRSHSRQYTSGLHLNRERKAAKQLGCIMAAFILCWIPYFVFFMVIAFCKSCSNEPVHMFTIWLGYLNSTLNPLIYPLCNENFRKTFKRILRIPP

[7] = tested on: Mus musculus; test: In vivo inhibition of histamine H3 receptor in po dosed mouse assessed as Nt-methylhistamine level in brain; type: functional
[8] = tested on: Rattus norvegicus; test: Anticonvulsant activity in Wistar rat assessed as protection against pentylenetetrazole-induced seizure at 10 mg/kg, ip after 30 mins; type: functional, organism-based; parameters: dose 10 mg/kg
[9] = tested on: Rattus norvegicus; test: Anticonvulsant activity in Wistar rat assessed as protection against maximum electric shock-induced tonic hind limb extension at 5 mg/kg, ip; type: functional, organism-based; parameters: dose 5 mg/kg; conditions: Hindlimb
[10] = tested on: Rattus norvegicus; test: Anticonvulsant activity in Wistar rat assessed as protection against maximum electric shock-induced tonic hind limb extension at 10 mg/kg, ip in presence of histamine H1R antagonist pyrilamine; type: functional, organism-based; parameters: dose 10 mg/kg; conditions: Hindlimb
[11] = tested on: Rattus norvegicus; test: Anticonvulsant activity in Wistar rat assessed as protection against maximum electric shock-induced tonic hind limb extension at 15 mg/kg, ip; type: functional, organism-based; parameters: dose 15 mg/kg; conditions: Hindlimb
[12] = tested on: Rattus norvegicus; test: Anticonvulsant activity in Wistar rat assessed as protection against pentylenetetrazole-induced seizure at 10 mg/kg, ip after 5 to 10 mins; type: functional, organism-based; parameters: dose 10 mg/kg
[13] = tested on: Rattus norvegicus; test: Anticonvulsant activity in ip dosed Wistar rat assessed as protection against maximum electric shock-induced tonic hind limb extension; type: functional, organism-based; conditions: Hindlimb
[14] = tested on: Rattus norvegicus; test: Anticonvulsant activity in Wistar rat assessed as protection against maximum electric shock-induced tonic hind limb extension at 10 mg/kg, ip in presence of histamine H3R agonist RAMH; type: functional, organism-based; parameters: dose 10 mg/kg; conditions: Hindlimb

`C[C@@H](N)Cc1c[nH]cn1` was tested, and the Activity [1] was “inactive”.

In the case of `CC/C=C/CCNC(=O)OCCCc1c[nH]cn1`, the Ki [2] is reported as 257 nM and the Ki [3] is reported as 13200 nM.

For `O=C(NCCCCC1CCCCC1)OCCCc1c[nH]cn1`, the pKb [4] was 4.61, the Ki [2] was 1950 nM and the Activity [5] was “Active”. The Activity [1] was “Active”, the Ki [3] was 5010 nM and the pKb [6] was < 5.52.

For `O=C(NCCCOc1ccccc1)OCCCc1c[nH]cn1`, the pKb [4] was 4.26, the Ki [2] was 1290 nM and the Activity [1] was “Active”. The Ki [3] was > 100000 nM, the pKb [6] was 4.34 and the ED50 [7] was 4.1 mg/kg.

`C=CCCNC(=O)OCCCc1c[nH]cn1` was tested, and the pKb [4] was < 4, the Activity [5] was “Active” and the Activity [1] was “Active”. The Ki [3] was 3800 nM and the pKb [6] was < 4.

For `O=C(NCCCC1CCCCC1)OCCCc1c[nH]cn1`, the pKb [4] was 4.94, the Ki [2] was 851 nM and the Ki [3] was 4470 nM. The pKb [6] was 4.97.

For `COc1ccc(CN(CCN(C)C)c2ccccn2)cc1`, the Activity [1] was “inactive”.

With `O=C1NC(=O)C(c2ccccc2)(c2ccccc2)N1` the Activity [8] was “Active”, the Activity [5] was “Active” and the Activity [1] was “Active”. For the same molecule, the Activity [9] was “inactive”.

For `S=C(NC1CCCCC1)N1CCC(c2cnc[nH]2)CC1`, the pKb [4] was < 5, the Activity [1] was “Active” and the pKb [6] was < 5.

For `O=C(NCCC1CC1)OCCCc1c[nH]cn1`, the pKb [4] was 3.5, the Ki [2] was 170 nM and the Ki [3] was 1550 nM. For the same molecule, the pKb [6] was 3.8.

For `O=C(NCCOc1ccccc1Cl)OCCCc1c[nH]cn1`, the Ki [2] was 708 nM, the Activity [1] was “Active” and the Ki [3] was 16200 nM. For the same molecule, the ED50 [7] was 2.2 mg/kg.

`O=C(NCCc1ccc(Cl)cc1)OCCCc1c[nH]cn1` showed a pKb [4] of 4.41, a Ki [2] of 427 nM and a Ki [3] of 6760 nM. For the same molecule, the pKb [6] was 4.82 and the ED50 [7] was 3.1 mg/kg.

`C=CCCCNC(=O)OCCCc1c[nH]cn1` was tested, and the pKb [4] was 3.6, the Activity [10] was “inactive” and the Ki [2] was 141 nM. The Activity [11] was “Active”, the Activity [1] was “Active” and the Activity [12] was “Active”. For the same molecule, the Activity [9] was “Active”, the Ki [3] was 41700 nM and the pKb [6] was 3.9. The Activity [13] was “Dose-dependent effect” and the Activity [14] was “inactive”.

For `CCC(C)CCNC(=O)OCCCc1c[nH]cn1` (stereo not drawn), the Ki [2] was 129 nM, the Activity [5] was “Active” and the Activity [1] was “Active”. For the same molecule, the Ki [3] was 1230 nM and the ED50 [7] was 2 mg/kg.

In the case of `O=C(NCCCCOc1ccccc1)OCCCc1c[nH]cn1`, the pKb [4] is reported as 4.78, the Ki [2] is reported as 1050 nM and the Ki [3] is reported as > 100000 nM. The pKb [6] was 4.27 and the ED50 [7] was 5.8 mg/kg.

With `CCC/C=C/CNC(=O)OCCCc1c[nH]cn1` the Ki [2] was 240 nM, the Activity [1] was “Active” and the Ki [3] was 7080 nM.

`O=C(NCCC1CCCCC1)OCCCc1c[nH]cn1` was tested, and the pKb [4] was 4.49, the Ki [2] was 251 nM and the Ki [3] was 1550 nM. For the same molecule, the pKb [6] was 3.96.
